Measured values from PMC11396129, “Oxindole–benzothiazole hybrids as CDK2 inhibitors and anticancer agents: design, synthesis and biological evaluation” (BMC Chemistry, 2024).

Assays:
[1] = tested on: EKVX; assay: NCI 60 panel growth inhibition (SRB), non-small cell lung cancer; format: cell-based, human; settings: 10 μM
Description: (§1) Screening of cytotoxic activity against a panel of sixty human tumor cell lines The selected compounds by NCI were evaluated for their anticancer activity in a two- stage process. […] Then, the output from the single dose screen is reported as a mean graph. […] Assay protocol. […] For a typical screening experiment, cells are inoculated into 96 well microtiter plates in 100 µL at plating densities ranging from 5000 to 40,000 cells/well depending on the doubling time of individual cell lines. […] After 24 h, two plates of each cell line are fixed in situ with TCA, to represent a measurement of the cell population for each cell line at the time of drug addition (Tz). The experimental drugs are solubilized in dimethyl sulfoxide at 400-fold the desired final maximum test concentration and stored frozen prior to use. At the time of drug addition, an aliquot of frozen concentrate is thawed and diluted to twice the desired final maximum test concentration with complete medium containing 50 µg/mL gentamicin. Additional four, 10-fold or ½ log serial dilutions are made to provide a total of five drug concentrations plus control. […] For adherent cells, the assay is terminated by the addition of cold TCA. […] The supernatant is discarded, and the plates are washed five times with tap water and air dried. […] Using the seven absorbance measurements [time zero, (Tz), control growth, (C), and test growth in the presence of drug at the five concentration levels (Ti)], the percentage growth is calculated at each of the drug concentrations levels. Percentage growth inhibition is calculated as: [(Ti Tz)/(C–Tz)] x 100 for concentrations for which Ti>/=Tz and [(Ti-Tz)/Tz] x 100 for concentrations for which Ti < Tz. Three dose response parameters are calculated for each experimental agent. […] The drug concentration resulting in total growth inhibition (TGI) is calculated from Ti = Tz. […] Values are calculated for each of these three parameters if the level of activity is reached; however, if the effect is not reached or is exceeded, the value for that parameter is expressed as greater or less than the maximum or minimum concentration tested.

[2] = tested on: NCI-H522; assay: as above; format: cell-based, human; settings: NCI-H522, 10 μM
Description: as §1

[3] = tested on: A549/ATCC; assay: as above; format: cell-based, human; settings: 10 μM
Description: as §1

[4] = tested on: NCI-H226; assay: as above; format: cell-based, human; settings: NCI-H226, 10 μM
Description: as §1

[5] = tested on: HOP-62; assay: as above; format: cell-based, human; settings: HOP-62, 10 μM
Description: as §1

[6] = tested on: NCI-H23; assay: as above; format: cell-based, human; settings: NCI-H23, 10 μM
Description: as §1

[7] = tested on: NCI-H322M; assay: as above; format: cell-based, human; settings: 10 μM
Description: as §1

[8] = tested on: NCI-H460; assay: as above; format: cell-based, human; settings: NCI-H460, 10 μM
Description: as §1

[9] = tested on: MDA-MB-435; assay: NCI 60 panel growth inhibition (SRB), melanoma; format: cell-based, human; settings: MDA-MB-435, 10 μM
Method in brief: (§2)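 Growth inhibition measured by SRB across a five-dose range; TGI defined as the concentration where test absorbance equals time-zero absorbance. Out-of-range effects expressed as above or below the highest or lowest concentration tested.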

[10] = tested on: MALME-3M; assay: NCI 60 panel growth inhibition (SRB), melanoma; format: cell-based, human; settings: 10 μM
Method in brief: as §2

[11] = tested on: SK-MEL-2; assay: NCI 60 panel growth inhibition (SRB), melanoma; format: cell-based, human; settings: SK-MEL-2, 10 μM
Method in brief: as §2

[12] = tested on: HT29; assay: NCI 60 panel growth inhibition (SRB), colon cancer; format: cell-based, human; settings: HT29, 10 μM
Description: as §1

[13] = tested on: KM12; assay: NCI 60 panel growth inhibition (SRB), colon cancer; format: cell-based, human; settings: KM12, 10 μM
Description: as §1

[14] = tested on: HCC-2998; assay: NCI 60 panel growth inhibition (SRB), colon cancer; format: cell-based, human; settings: HCC-2998, 10 μM
Description: as §1

[15] = tested on: COLO 205; assay: NCI 60 panel growth inhibition (SRB), colon cancer; format: cell-based, human; settings: COLO 205, 10 μM
Description: as §1

[16] = tested on: HCT-15; assay: NCI 60 panel growth inhibition (SRB), colon cancer; format: cell-based, human; settings: HCT-15, 10 μM
Description: as §1

[17] = tested on: HCT-116; assay: NCI 60 panel growth inhibition (SRB), colon cancer; format: cell-based, human; settings: HCT-116, 10 μM
Description: as §1

[18] = tested on: SW-620; assay: NCI 60 panel growth inhibition (SRB), colon cancer; format: cell-based, human; settings: SW-620, 10 μM
Description: as §1

[19] = tested on: SNB-19; assay: NCI 60 panel growth inhibition (SRB), CNS cancer; format: cell-based, human; settings: SNB-19, 10 μM
Description: as §1

[20] = tested on: U251; assay: NCI 60 panel growth inhibition (SRB), CNS cancer; format: cell-based, human; settings: U251, 10 μM
Description: as §1

[21] = tested on: SF-295; assay: NCI 60 panel growth inhibition (SRB), CNS cancer; format: cell-based, human; settings: SF-295, 10 μM
Description: as §1

[22] = tested on: SF-539; assay: NCI 60 panel growth inhibition (SRB), CNS cancer; format: cell-based, human; settings: SF-539, 10 μM
Description: as §1

[23] = tested on: SF-268; assay: NCI 60 panel growth inhibition (SRB), CNS cancer; format: cell-based, human; settings: SF-268, 10 μM
Description: as §1

[24] = tested on: SNB-75; assay: NCI 60 panel growth inhibition (SRB), CNS cancer; format: cell-based, human; settings: SNB-75, 10 μM
Description: as §1

[25] = tested on: NCI 60 cancer cell line panel; assay: NCI 60 panel growth inhibition (SRB), whole panel; format: cell-based, human; settings: mean over NCI 60 panel, 10 μM
Description: as §1

[26] = tested on: HOP-92; assay: NCI 60 panel growth inhibition (SRB), non-small cell lung cancer; format: cell-based, human; settings: HOP-92, 10 μM
Description: as §1

SMILES | GI% [1] | GI% [2] | GI% [3] | GI% [4] | GI% [6] | GI% [7] | GI% [8] | GI% [9] | GI% [11] | GI% [12] | GI% [13] | GI% [14] | GI% [16] | GI% [17] | GI% [18] | melting point | GI% [19] | GI% [20] | GI% [21] | GI% [22] | further results
O=C(COc1ccccc1-c1nc2ccccc2s1)NN=C1C(=O)Nc2ccc(Cl)cc21 [Compound 9e, 2-(2-(Benzo[d]thiazol-2-yl)phenoxy)-N′-(5-chloro-2-oxoindolin-3-ylidene)acetohydrazide] | 53.99% | 11.15% | – (GI% < 5%) | 11.52% | 7.05% | – (GI% < 5%) | – (GI% < 5%) | – (GI% < 5%) | – (GI% < 5%) | – (GI% < 5%) | – (GI% < 5%) | – (GI% < 5%) | – (GI% < 5%) | – (GI% < 5%) | – (GI% < 5%) | 265 to 267 °C | – (GI% < 5%) | – (GI% < 5%) | – (GI% < 5%) | – (GI% < 5%) | GI% [5]: – (GI% < 5%); GI% [10]: – (GI% < 5%); GI% [15]: – (GI% < 5%); GI% [23]: – (GI% < 5%); GI% [24]: – (GI% < 5%)
COc1cccc(-c2nc3ccccc3s2)c1OCC(=O)NN=C1C(=O)Nc2ccc(Cl)cc21 [Compound 9k, 2-(2-(Benzo[d]thiazol-2-yl)-6-methoxyphenoxy)-N′-(5-chloro-2-oxoindolin-3-ylidene)acetohydrazide] | 66.74% | 28.39% | 26.29% | 18.20% | 17.71% | – (GI% < 5%) | 8.94% | – (GI% < 5%) | 12.78% | 14.83% | 22.47% | – (GI% < 5%) | 31.91% | 13.42% | – (GI% < 5%) | 263 to 265 °C | – (GI% < 5%) | – (GI% < 5%) | 38.31% | 30.36% | GI% [5]: 6.81%; GI% [15]: – (GI% < 5%); GI% [23]: – (GI% < 5%); GI% [24]: – (GI% < 5%); Mean GI% [25]: 14.92%
COc1ccc(-c2nc3ccccc3s2)cc1OCC(=O)NN=C1C(=O)Nc2ccc(Br)cc21 [Compound 9r, 2-(5-(Benzo[d]thiazol-2-yl)-2-methoxyphenoxy)-N′-(5-bromo-2-oxoindolin-3-ylidene)acetohydrazide] | 7.18% | 8.27% | 7.78% | 10.50% | 20.81% | – (GI% < 5%) | – (GI% < 5%) | – (GI% < 5%) | 17.63% | – (GI% < 5%) | – (GI% < 5%) | – (GI% < 5%) | – (GI% < 5%) | 30.23% | 7.61% | 271 to 273 °C | 48.19% | 30.21% | – (GI% < 5%) | 21.62% | GI% [26]: 32.33%; GI% [10]: 11.71%; GI% [23]: – (GI% < 5%); GI% [24]: – (GI% < 5%); Mean GI% [25]: 10.08%
COc1ccc(-c2nc3ccccc3s2)cc1OCC(=O)NN=C1C(=O)Nc2ccccc21 [Compound 9m, 2-(5-(Benzo[d]thiazol-2-yl)-2-methoxyphenoxy)-N′-(2-oxoindolin-3-ylidene) acetohydrazide] | – (GI% < 5%) | 7.23% | – (GI% < 5%) | – (GI% < 5%) | 14.06% | – (GI% < 5%) | 17.38% | – (GI% < 5%) | – (GI% < 5%) | – (GI% < 5%) | – (GI% < 5%) | – (GI% < 5%) | 10.77% | 41.54% | 29.93% | 192 to 194 °C | – (GI% < 5%) | 13.36% | – (GI% < 5%) | 10.76% | GI% [26]: – (GI% < 5%); GI% [10]: – (GI% < 5%); GI% [23]: – (GI% < 5%); GI% [24]: – (GI% < 5%); Mean GI% [25]: 6.03%
